Like-named read-outs stand apart in the source and are kept apart here.
Assays:
Experiment in all cases: biochemical
Assay type in all cases: binding
[1] = molecular target: 468 kinases including some pathogenic mutants (Homo sapiens, UniProt P00519, F317I); conditions: read-out: Percent Control
[2] = molecular target: 468 kinases including some pathogenic mutants (Homo sapiens, UniProt P04049); conditions: RAF1 (Entrez RAF1), 1000 nM; read-out: Percent Control
[3] = molecular target: 468 kinases including some pathogenic mutants (Homo sapiens, UniProt P07947); conditions: YES (Entrez YES1), 100 nM; read-out: Percent Control
Chain of 468 kinases including some pathogenic mutants (Homo sapiens, UniProt P07947) (P07947 whole entry, stated change not applied): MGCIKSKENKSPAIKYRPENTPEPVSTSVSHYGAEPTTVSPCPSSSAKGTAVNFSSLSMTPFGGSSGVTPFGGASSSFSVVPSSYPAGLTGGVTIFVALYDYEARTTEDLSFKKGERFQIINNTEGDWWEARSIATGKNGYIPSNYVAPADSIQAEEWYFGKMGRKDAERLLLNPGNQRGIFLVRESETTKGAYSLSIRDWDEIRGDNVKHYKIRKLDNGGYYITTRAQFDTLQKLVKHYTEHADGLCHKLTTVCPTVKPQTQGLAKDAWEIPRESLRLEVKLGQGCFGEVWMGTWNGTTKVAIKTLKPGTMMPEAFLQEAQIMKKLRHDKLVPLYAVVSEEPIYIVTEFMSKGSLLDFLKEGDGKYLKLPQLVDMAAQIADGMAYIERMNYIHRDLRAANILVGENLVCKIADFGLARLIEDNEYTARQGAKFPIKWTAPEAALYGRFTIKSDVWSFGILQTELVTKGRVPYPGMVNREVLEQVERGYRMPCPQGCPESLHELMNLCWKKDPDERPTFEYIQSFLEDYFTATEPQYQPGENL

[4] = molecular target: 468 kinases including some pathogenic mutants (Homo sapiens, UniProt P07949, V804L); conditions: read-out: Percent Control
[5] = molecular target: 468 kinases including some pathogenic mutants (Homo sapiens, UniProt P10721); conditions: 100 nM, read-out: Percent Control
Chain of 468 kinases including some pathogenic mutants (Homo sapiens, UniProt P10721) (P10721 26-976, change not shown): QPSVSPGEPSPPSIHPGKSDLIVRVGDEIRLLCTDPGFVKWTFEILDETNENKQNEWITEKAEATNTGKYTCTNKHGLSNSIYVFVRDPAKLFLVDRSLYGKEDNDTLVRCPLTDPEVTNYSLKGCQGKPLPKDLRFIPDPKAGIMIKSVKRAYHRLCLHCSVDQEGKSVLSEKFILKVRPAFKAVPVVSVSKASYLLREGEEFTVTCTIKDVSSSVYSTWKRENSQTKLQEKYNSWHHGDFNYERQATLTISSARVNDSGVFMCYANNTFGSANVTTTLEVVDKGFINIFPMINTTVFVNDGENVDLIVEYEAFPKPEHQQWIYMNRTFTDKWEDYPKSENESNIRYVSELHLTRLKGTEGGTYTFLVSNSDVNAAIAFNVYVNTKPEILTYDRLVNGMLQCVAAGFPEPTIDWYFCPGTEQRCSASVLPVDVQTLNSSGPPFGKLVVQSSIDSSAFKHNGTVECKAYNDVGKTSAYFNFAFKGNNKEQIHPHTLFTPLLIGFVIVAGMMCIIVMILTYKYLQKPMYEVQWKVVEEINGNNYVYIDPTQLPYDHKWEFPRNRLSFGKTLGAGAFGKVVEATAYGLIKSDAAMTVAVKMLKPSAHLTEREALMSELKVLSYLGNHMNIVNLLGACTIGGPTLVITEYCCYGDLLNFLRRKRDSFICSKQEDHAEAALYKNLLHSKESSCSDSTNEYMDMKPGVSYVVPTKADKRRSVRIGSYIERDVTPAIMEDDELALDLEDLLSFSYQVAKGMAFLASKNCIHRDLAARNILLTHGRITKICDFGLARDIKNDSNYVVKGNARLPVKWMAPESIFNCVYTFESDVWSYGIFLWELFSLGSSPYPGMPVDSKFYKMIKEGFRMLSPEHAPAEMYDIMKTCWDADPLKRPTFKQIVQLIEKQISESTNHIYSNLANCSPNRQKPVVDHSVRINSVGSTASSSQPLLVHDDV

[6] = molecular target: 468 kinases including some pathogenic mutants (Homo sapiens, UniProt P11802); conditions: 100 nM, read-out: Percent Control
Chain of 468 kinases including some pathogenic mutants (Homo sapiens, UniProt P11802) (P11802 whole entry, change not shown): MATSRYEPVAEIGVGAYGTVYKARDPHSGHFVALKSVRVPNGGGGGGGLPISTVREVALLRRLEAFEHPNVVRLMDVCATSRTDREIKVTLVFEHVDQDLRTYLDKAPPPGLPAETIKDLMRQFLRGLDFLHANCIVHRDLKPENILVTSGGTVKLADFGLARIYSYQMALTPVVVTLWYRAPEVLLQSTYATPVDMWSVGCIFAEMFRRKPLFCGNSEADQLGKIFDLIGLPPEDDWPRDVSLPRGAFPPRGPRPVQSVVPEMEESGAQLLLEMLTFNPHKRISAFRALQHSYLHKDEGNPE

[7] = molecular target: 468 kinases including some pathogenic mutants (Homo sapiens, UniProt P24723); conditions: PRKCH (Entrez PRKCH), 1000 nM; read-out: Percent Control
[8] = molecular target: 468 kinases including some pathogenic mutants (Homo sapiens, UniProt P30291); conditions: WEE1 (Entrez WEE1), 100 nM; read-out: Percent Control
Chain of 468 kinases including some pathogenic mutants (Homo sapiens, UniProt P30291) (P30291 whole entry, change not shown): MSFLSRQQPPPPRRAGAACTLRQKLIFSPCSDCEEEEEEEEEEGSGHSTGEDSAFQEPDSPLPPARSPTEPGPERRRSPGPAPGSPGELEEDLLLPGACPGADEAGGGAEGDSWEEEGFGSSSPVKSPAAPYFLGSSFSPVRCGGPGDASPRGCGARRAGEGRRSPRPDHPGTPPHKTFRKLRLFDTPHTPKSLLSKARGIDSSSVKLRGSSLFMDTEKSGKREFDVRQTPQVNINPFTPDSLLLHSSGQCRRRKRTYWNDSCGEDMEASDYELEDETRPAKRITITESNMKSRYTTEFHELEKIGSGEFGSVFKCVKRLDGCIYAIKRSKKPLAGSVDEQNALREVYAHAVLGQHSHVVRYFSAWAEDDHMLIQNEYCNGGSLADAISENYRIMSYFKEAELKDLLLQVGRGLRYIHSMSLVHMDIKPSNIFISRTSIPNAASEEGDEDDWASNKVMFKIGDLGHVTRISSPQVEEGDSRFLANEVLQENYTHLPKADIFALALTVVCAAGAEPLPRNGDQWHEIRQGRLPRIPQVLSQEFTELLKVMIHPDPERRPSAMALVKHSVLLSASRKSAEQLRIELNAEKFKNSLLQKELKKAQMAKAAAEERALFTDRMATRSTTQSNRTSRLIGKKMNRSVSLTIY

[9] = molecular target: 468 kinases including some pathogenic mutants (Homo sapiens, UniProt P32298); conditions: GRK4 (Entrez GRK4), 100 nM; read-out: Percent Control
Chain of 468 kinases including some pathogenic mutants (Homo sapiens, UniProt P32298) (P32298 whole entry, change not shown): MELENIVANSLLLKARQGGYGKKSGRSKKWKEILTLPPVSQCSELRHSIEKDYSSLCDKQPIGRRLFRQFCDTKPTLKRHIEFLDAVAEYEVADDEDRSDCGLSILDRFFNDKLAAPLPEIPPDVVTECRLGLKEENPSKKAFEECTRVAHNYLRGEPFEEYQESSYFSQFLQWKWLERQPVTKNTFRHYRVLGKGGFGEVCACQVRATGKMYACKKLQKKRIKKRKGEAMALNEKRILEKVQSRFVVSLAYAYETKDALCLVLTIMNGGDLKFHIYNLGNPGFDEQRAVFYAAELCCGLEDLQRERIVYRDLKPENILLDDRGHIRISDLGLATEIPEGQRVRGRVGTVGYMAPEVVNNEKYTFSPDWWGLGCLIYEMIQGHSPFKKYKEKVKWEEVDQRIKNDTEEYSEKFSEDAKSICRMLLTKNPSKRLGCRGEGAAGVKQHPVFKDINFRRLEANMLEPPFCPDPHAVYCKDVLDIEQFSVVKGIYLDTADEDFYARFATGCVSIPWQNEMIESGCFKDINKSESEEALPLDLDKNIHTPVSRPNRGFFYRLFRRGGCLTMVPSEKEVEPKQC

[10] = molecular target: 468 kinases including some pathogenic mutants (Homo sapiens, UniProt P35590); conditions: TIE1 (Entrez TIE1), 100 nM; read-out: Percent Control
[11] = molecular target: 468 kinases including some pathogenic mutants (Homo sapiens, UniProt P35916); conditions: FLT4 (Entrez FLT4), 100 nM; read-out: Percent Control
Chain of 468 kinases including some pathogenic mutants (Homo sapiens, UniProt P35916) (P35916 25-1363, change not shown): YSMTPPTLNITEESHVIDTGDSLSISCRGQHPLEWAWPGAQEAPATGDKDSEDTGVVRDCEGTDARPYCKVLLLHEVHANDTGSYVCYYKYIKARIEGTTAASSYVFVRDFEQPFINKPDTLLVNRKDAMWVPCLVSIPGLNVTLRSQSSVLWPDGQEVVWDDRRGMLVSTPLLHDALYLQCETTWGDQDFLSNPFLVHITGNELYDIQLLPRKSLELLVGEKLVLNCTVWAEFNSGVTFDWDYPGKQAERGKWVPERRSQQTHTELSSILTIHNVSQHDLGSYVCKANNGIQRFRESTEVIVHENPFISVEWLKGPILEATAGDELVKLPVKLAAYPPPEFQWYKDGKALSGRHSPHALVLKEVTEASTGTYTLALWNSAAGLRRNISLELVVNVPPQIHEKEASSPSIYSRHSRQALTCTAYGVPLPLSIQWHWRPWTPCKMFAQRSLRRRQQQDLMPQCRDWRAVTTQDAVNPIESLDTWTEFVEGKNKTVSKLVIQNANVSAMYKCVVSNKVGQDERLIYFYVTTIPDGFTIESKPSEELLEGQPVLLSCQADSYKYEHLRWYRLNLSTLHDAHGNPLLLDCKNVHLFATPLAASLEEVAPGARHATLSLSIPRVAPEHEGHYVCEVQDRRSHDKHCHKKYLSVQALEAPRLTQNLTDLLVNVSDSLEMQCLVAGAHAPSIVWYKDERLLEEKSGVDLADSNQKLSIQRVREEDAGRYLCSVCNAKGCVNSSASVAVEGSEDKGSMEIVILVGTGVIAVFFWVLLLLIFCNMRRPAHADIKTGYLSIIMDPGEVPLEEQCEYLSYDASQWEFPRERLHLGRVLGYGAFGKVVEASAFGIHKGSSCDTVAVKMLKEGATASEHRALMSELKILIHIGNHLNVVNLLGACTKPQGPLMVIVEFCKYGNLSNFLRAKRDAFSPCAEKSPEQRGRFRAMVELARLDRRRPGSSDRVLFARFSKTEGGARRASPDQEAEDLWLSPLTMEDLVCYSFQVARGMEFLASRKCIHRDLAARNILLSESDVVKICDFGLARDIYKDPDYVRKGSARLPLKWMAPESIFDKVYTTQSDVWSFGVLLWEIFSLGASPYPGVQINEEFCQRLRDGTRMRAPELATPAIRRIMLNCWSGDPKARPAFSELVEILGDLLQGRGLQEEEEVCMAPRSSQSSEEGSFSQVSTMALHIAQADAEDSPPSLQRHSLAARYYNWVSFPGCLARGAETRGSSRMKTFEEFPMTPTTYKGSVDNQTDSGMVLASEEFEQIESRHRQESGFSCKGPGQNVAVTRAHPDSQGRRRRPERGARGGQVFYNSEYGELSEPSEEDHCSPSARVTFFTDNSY

[12] = molecular target: 468 kinases including some pathogenic mutants (Homo sapiens, UniProt P41240); conditions: CSK (Entrez CSK), 100 nM; read-out: Percent Control
[13] = molecular target: 468 kinases including some pathogenic mutants (Homo sapiens, UniProt P42336, E542K); conditions: read-out: Percent Control
[14] = molecular target: 468 kinases including some pathogenic mutants (Homo sapiens, UniProt P42681); conditions: TXK (Entrez TXK), 100 nM; read-out: Percent Control
[15] = molecular target: 468 kinases including some pathogenic mutants (Homo sapiens, UniProt P51817); conditions: PRKX (Entrez PRKX), 100 nM; read-out: Percent Control
Chain of 468 kinases including some pathogenic mutants (Homo sapiens, UniProt P51817) (P51817 whole entry, change not shown): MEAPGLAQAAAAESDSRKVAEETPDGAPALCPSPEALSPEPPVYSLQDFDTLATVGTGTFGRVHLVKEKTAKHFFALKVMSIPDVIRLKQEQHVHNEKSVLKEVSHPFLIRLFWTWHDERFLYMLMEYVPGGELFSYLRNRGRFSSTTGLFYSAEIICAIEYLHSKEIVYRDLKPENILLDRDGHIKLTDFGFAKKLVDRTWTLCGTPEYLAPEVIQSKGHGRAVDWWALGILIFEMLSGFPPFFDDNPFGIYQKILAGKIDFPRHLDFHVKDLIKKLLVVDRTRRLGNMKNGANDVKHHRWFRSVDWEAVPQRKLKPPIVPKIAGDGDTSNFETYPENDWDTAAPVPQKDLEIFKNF

[16] = molecular target: 468 kinases including some pathogenic mutants (Homo sapiens, UniProt P57078); conditions: RIPK4 (Entrez RIPK4), 100 nM; read-out: Percent Control
[17] = molecular target: 468 kinases including some pathogenic mutants (Homo sapiens, UniProt Q13177); conditions: PAK2 (Entrez PAK2), 100 nM; read-out: Percent Control
[18] = molecular target: 468 kinases including some pathogenic mutants (Homo sapiens, UniProt Q8IVH8); conditions: MAP4K3 (Entrez MAP4K3), 100 nM; read-out: Percent Control
[19] = molecular target: 468 kinases including some pathogenic mutants (Homo sapiens, UniProt Q8NEB9); conditions: VPS34 (Entrez PIK3C3), 1000 nM; read-out: Percent Control
[20] = molecular target: 468 kinases including some pathogenic mutants (Homo sapiens, UniProt Q96RR4); conditions: CAMKK2 (Entrez CAMKK2), 100 nM; read-out: Percent Control
[21] = molecular target: 468 kinases including some pathogenic mutants (Homo sapiens, UniProt Q99558); conditions: NIK (Entrez MAP3K14), 1000 nM; read-out: Percent Control
[22] = molecular target: 468 kinases including some pathogenic mutants (Homo sapiens, UniProt Q99759); conditions: MAP3K3 (Entrez MAP3K3), 100 nM; read-out: Percent Control
[23] = molecular target: 468 kinases including some pathogenic mutants (Homo sapiens, UniProt Q9H0K1); conditions: SIK2 (Entrez SIK2), 1000 nM; read-out: Percent Control
[24] = molecular target: 468 kinases including some pathogenic mutants (Homo sapiens, UniProt Q9HCP0); conditions: CSNK1G1 (Entrez CSNK1G1), 100 nM; read-out: Percent Control
[25] = molecular target: 468 kinases including some pathogenic mutants (Homo sapiens, UniProt Q9NRM7); conditions: LATS2 (Entrez LATS2), 100 nM; read-out: Percent Control
[26] = molecular target: 468 kinases including some pathogenic mutants (Homo sapiens, UniProt Q9NRP7); conditions: STK36 (Entrez STK36), 100 nM; read-out: Percent Control
[27] = molecular target: 468 kinases including some pathogenic mutants (Homo sapiens, UniProt Q9UQM7); conditions: CAMK2A (Entrez CAMK2A), 100 nM; read-out: Percent Control
EGFR(L861Q) = EGFR(L861Q) (Homo sapiens, UniProt P00533, L861Q); conditions: 1000 nM, read-out: Percent Control
RET(M918T) = RET(M918T) (Homo sapiens, UniProt P07949, M918T); conditions: 1000 nM, read-out: Percent Control

## CN1C(=O)[C@@H](N2CCc3c(nn(Cc4ccccc4)c3C(N)=O)C2=O)COc2cc(Cl)ccc21 [Compound 10, (S)-2-benzyl-6-(8-chloro-5-methyl-4-oxo-2,3,4,5-tetrahydrobenzo[b][1,4]oxazepin-3-yl)-7-oxo-4,5,6,7-tetrahydro-2H-pyrazolo[3,4-c]pyridine-3-carboxamide]
[1]
  remaining activity at 0.1 µM: 87%
[2]
  remaining activity at 1 µM: 100%
[3]
  remaining activity at 0.1 µM: 89%
[4]
  remaining activity at 1 µM: 100%
[5]; KIT (Entrez KIT)
  remaining activity at 0.1 µM: 69%
[5]; KIT-autoinhibited (Entrez KIT)
  remaining activity at 0.1 µM: 100%
[6]; CDK4 (Entrez CDK4)
  remaining activity at 0.1 µM: 94%
[6]; CDK4-cyclinD1 (Entrez CDK4)
  remaining activity at 0.1 µM: 77%
[6]; CDK4-cyclinD3 (Entrez CDK4)
  remaining activity at 0.1 µM: 92%
[7]
  remaining activity at 1 µM: 100%
[8]
  remaining activity at 0.1 µM: 92%
[9]
  remaining activity at 0.1 µM: 82%
[10]
  remaining activity at 0.1 µM: 68%
[11]
  remaining activity at 0.1 µM: 76%
[12]
  remaining activity at 0.1 µM: 83%
[13]
  remaining activity at 0.1 µM: 62%
[14]
  remaining activity at 0.1 µM: 88%
[15]
  remaining activity at 0.1 µM: 77%
[16]
  remaining activity at 0.1 µM: 96%
[17]
  remaining activity at 0.1 µM: 88%
[18]
  remaining activity at 0.1 µM: 83%
[19]
  remaining activity at 1 µM: 100%
[20]
  remaining activity at 0.1 µM: 76%
[21]
  remaining activity at 1 µM: 100%
[22]
  remaining activity at 0.1 µM: 66%
[23]
  remaining activity at 1 µM: 100%
[24]
  remaining activity at 0.1 µM: 80%
[25]
  remaining activity at 0.1 µM: 68%
[26]
  remaining activity at 0.1 µM: 100%
[27]
  remaining activity at 0.1 µM: 76%
EGFR(L861Q)
  remaining activity at 1 µM: 88%
RET(M918T)
  remaining activity at 1 µM: 96%

Reference: article PMC12090182, “Repurposing of the RIPK1-Selective Benzo[1,4]oxazepin-4-one Scaffold for the Development of a Type III LIMK1/2 Inhibitor” (ACS Chemical Biology, 2025)
